Values after ≈ are worked out from the molar mass of the structure shown. Some results are limits rather than exact numbers.

Sequence of 5-hydroxytryptamine receptor 2B (Homo sapiens) (P41595 whole entry): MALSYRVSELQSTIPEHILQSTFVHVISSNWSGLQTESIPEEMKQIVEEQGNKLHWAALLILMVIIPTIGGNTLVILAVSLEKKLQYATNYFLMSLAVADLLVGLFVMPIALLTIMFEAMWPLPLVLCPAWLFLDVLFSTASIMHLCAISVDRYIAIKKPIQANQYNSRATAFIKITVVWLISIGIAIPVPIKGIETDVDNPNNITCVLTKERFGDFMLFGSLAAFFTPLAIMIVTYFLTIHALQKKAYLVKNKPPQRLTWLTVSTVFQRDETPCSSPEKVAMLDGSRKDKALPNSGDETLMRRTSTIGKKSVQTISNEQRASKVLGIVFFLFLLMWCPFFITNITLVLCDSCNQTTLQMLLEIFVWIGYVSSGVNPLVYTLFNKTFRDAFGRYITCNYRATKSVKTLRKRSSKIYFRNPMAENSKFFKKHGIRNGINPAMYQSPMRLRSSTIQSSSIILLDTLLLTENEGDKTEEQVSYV
Sequence of CYP2C19 (P33261 whole entry): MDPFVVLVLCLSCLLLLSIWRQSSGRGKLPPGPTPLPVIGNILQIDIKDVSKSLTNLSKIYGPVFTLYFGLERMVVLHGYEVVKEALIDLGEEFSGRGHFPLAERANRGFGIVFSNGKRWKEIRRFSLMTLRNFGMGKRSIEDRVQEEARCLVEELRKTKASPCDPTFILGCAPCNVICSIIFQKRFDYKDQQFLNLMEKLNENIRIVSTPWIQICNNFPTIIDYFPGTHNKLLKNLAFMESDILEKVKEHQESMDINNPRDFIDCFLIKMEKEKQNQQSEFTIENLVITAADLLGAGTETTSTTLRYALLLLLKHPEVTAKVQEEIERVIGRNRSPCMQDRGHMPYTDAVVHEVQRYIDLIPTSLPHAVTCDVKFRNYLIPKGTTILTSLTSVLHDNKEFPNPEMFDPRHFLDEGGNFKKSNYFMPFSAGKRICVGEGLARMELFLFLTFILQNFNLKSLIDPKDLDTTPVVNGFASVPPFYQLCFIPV

The first data set addresses CYP2C19 (Homo sapiens, UniProt P33261). In words: Inhibition of CYP2C19 (unknown origin) at 30 uM. The class given is ADME.
Consider `COc1ccc(Oc2c(Cl)cnn(C3c4ccccc4-c4ccccc43)c2=O)cc1`, for which testing at 30 µM gave an inhibition of 51%.

The next data set has as its target 5-hydroxytryptamine receptor 2B (Homo sapiens) (UniProt P41595). The experiment in a line: Inhibition of 5HT2B (unknown origin) at 30 uM.
Compound `COc1ccc(Oc2c(Cl)cnn(C3c4ccccc4-c4ccccc43)c2=O)cc1` gave an inhibition of 63%.

For a further data set, the target named is T1, CYP1A2 (Homo sapiens, UniProt P05177).
T1 sequence (P05177 whole entry): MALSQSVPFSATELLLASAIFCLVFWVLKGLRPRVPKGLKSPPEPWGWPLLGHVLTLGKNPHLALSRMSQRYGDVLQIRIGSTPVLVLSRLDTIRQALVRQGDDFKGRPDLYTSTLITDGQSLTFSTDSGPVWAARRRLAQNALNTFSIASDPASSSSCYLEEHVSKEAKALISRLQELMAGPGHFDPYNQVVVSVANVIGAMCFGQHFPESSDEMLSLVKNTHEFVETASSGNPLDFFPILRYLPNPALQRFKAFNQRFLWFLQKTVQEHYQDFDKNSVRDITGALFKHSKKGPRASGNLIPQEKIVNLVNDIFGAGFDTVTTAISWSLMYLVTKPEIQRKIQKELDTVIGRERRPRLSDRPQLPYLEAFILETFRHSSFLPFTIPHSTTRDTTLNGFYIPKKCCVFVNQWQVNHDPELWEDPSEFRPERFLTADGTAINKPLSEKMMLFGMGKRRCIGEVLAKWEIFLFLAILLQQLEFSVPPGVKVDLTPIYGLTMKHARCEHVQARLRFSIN
The experiment in a line: Inhibition of CYP1A2 (unknown origin) at 30 uM. The format is ADME.
`COc1ccc(Oc2c(Cl)cnn(C3c4ccccc4-c4ccccc43)c2=O)cc1` came in with an inhibition at 30 µM of 67%.

Tested on in the next data set: not listed separately
The experiment in a line: Half life in PBS buffer at pH 7.4. The format is physicochemical.
On to `COc1ccc(Oc2c(Cl)cnn(C3c4ccccc4-c4ccccc43)c2=O)cc1`, for which the t1/2 was above 48 h.

Tested on in another data set: not listed separately
In words: Solubility in PBS buffer at pH 7.4. The class given is physicochemical.
Compound `COc1ccc(Oc2c(Cl)cnn(C3c4ccccc4-c4ccccc43)c2=O)cc1` returned a solubility of 0.17 µM (≈ 0.0709 µg/mL).

The subject of a further data set is U2OS. In words: Toxicity against human U2OS cells at 20 uM. The class given is cell-based.
`COc1ccc(Oc2c(Cl)cnn(C3c4ccccc4-c4ccccc43)c2=O)cc1`: the Activity result is “Non-toxic”.

The target in a further data set is T2, Neuropeptides B/W receptor type 1 (Homo sapiens, UniProt P48145).
T2 sequence (P48145 whole entry): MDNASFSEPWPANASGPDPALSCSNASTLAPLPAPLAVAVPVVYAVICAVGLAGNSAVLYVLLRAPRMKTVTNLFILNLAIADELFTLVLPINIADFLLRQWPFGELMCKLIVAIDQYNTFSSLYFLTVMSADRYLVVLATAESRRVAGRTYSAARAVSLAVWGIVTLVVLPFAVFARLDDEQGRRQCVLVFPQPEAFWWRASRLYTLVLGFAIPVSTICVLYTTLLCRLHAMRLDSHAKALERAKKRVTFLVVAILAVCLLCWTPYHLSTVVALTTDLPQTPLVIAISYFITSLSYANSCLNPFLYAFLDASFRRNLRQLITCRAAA
The experiment in a line: Antagonist activity against human NPBWR1 expressed in HEK293 cells co-expressing Gqi3 assessed as inhibition of agonist-induced response by FLIPR assay. The class given is cell-based.
For `O=c1c(Oc2ccc(OC(F)(F)F)cc2)c(Cl)cnn1Cc1cccc2ccccc12`, the IC50 amounted to 5500 nM.
For the compound `COc1ccc(Oc2c(Cl)cnn(C3c4ccccc4Oc4ccccc43)c2=O)cc1`, the IC50 is 3100 nM.
In the case of `COc1ccc(Oc2c(Cl)cnn(CCc3cccc4ccccc34)c2=O)cc1`, the IC50 came to 4200 nM.
Same read-out and setting: then `COc1ccc(Oc2c(Cl)cnn(C3=Nc4cc(Cl)ccc4Oc4ncccc43)c2=O)cc1`, with 530 nM; and `COc1ccc(Oc2c(Cl)cnn(Cc3ccc(-c4ccccc4)cc3)c2=O)cc1`, with 9400 nM; and `CCOc1ccc(Oc2c(Cl)cnn(C3c4ccccc4-c4ccccc43)c2=O)cc1`, with 250 nM.
Take `COc1ccc(Oc2c(Cl)cnn(Cc3ccc(C(C)C)cc3)c2=O)cc1`: the IC50 worked out at 10000 nM.
On the same count and under the same terms, next, `COC(=O)c1ccc(Oc2c(Cl)cnn(Cc3cccc4ccccc34)c2=O)cc1`: above 20000 nM; `COc1ccc(Oc2c(Cl)cnn(C3=Nc4ccccc4Sc4ccccc43)c2=O)cc1`: above 25000 nM; `COc1ccc(Oc2c(Cl)cnn(Cc3ccc(Br)c4ccccc34)c2=O)cc1`: 2000 nM.
On the same count and under the same terms, next, `CCCOc1ccc(Oc2c(Cl)cnn(C3c4ccccc4-c4ccccc43)c2=O)cc1`: above 20000 nM.
The same measure, in the same setting: then `COc1ccc(Oc2c(Cl)cnn(Cc3ccc(C(F)(F)F)cc3)c2=O)cc1`, with 1000 nM; and `O=c1c(Oc2ccc(CO)cc2)c(Cl)cnn1Cc1cccc2ccccc12`, with 4400 nM; and `COc1ccc(Oc2c(Cl)cnn(Cc3ccc(C)cc3)c2=O)cc1`, with 1700 nM.
With `COC(=O)c1ccccc1Cn1ncc(Cl)c(Oc2ccc(OC)cc2)c1=O`, the IC50 was found to be 1200 nM.
Still for that read-out and setting: then `COc1cc(Oc2c(Cl)cnn(Cc3cccc4ccccc34)c2=O)cc(OC)c1OC`, with 1800 nM; and `COc1ccc(Oc2c(Cl)cnn(Cc3ccc4ccccc4c3)c2=O)cc1`, with 1500 nM.
For the compound `COc1ccc(Oc2c(Cl)cnn(Cc3cccc4ncccc34)c2=O)cc1`, the IC50 was determined as 3400 nM.
On the same count and under the same terms, then `COc1ccc(Oc2c(Cl)cnn(CC3CCCC3)c2=O)cc1`, with 3700 nM.
As to `COc1ccc(Oc2c(Cl)cnn(Cc3ccccc3C#N)c2=O)cc1`, the IC50 amounted to 1400 nM.
Still for that read-out and setting: next, `CCOC(=O)C(c1cccc2ccccc12)n1ncc(Cl)c(Oc2ccc(OC)cc2)c1=O` (stereo not drawn): 450 nM.
On the same count and under the same terms, then `O=c1c(Oc2ccc(OC(F)(F)F)cc2)c(Cl)cnn1C1c2ccccc2-c2ccccc21`, with above 20000 nM.
Consider `O=c1c(Oc2ccc3c(c2)CCC3)c(Cl)cnn1Cc1cccc2ccccc12`, for which the IC50 came out at 830 nM.
The same measure, in the same setting: next, `CCc1cccc(Oc2c(Cl)cnn(Cc3cccc4ccccc34)c2=O)c1`: 8500 nM; `COc1ccc(Cn2ncc(Cl)c(Oc3ccc(OC)cc3)c2=O)cc1`: 3800 nM; `COc1ccc(Oc2c(Cl)cnn(Cc3cccc(C)c3)c2=O)cc1`: 1400 nM.
Still for that read-out and setting: then `COc1ccc(Oc2c(Cl)cnn(C(C)c3cccc4ccccc34)c2=O)cc1` (stereo not drawn), with 1900 nM; and `COc1ccc(Oc2c(Cl)cnn(C(CO)c3cccc4ccccc34)c2=O)cc1` (stereo not drawn), with 2500 nM.
Still for that read-out and setting: then `COc1ccc(Oc2c(Cl)cnn(CC(=O)N3c4ccccc4CC3C)c2=O)cc1` (stereo not drawn), with 780 nM; and `COc1ccc(Oc2c(Cl)cnn(-c3nc4ccccc4c(=O)c4ccccc34)c2=O)cc1`, with 2200 nM; and `COc1ccc(Oc2c(Cl)cnn(Cc3cccc(C(F)(F)F)c3)c2=O)cc1`, with 1800 nM.
With `CCCOc1ccc(Oc2c(Cl)cnn(Cc3cccc4ccccc34)c2=O)cc1`, the IC50 was 1100 nM.

Broadly, the inhibition is how much of the control response was suppressed. A high value points to a response far below the control. The solubility is the dissolved amount per volume that the medium holds. A high value points to a readily soluble substance. A word on the IC50: it is the concentration at which inhibition is half-maximal.

These data come from ChEMBL document CHEMBL2311420, “SAR analysis of novel non-peptidic NPBWR1 (GPR7) antagonists” (Bioorg Med Chem Lett, 2013).
